The test system of the assay is human chronic myelocytic leukemia-derived K562 cells. In words: Cell growth inhibition test with K562 cells (WST-1). To be noted: 72 hours, read-out: 50% growth inhibition concentration (GI50). In kind it is cell-based. How it is done:
In a 96-well plate (Nunc), human chronic myelocytic leukemia-derived K562 cells were sown in an amount of 1500 cells/well, and pre-incubated in 10% FCS-containing Rosewell Park Memorial Institute's Medium (RPMI) 1640 (Nissui) (incubation medium) in a 5% carbon dioxide incubator at 37° C. for 5 hours. Next, a DMSO solution of a test compound controlled at 10 mmol/L was stepwise diluted with the incubation medium, and added to each well in a total amount of 100 μL/well, and further incubated in the 5% carbon dioxide incubator at 37° C. for 72 hours. After the incubation, WST-1-labeled mixture (Rosh Diagnostic) diluted 2-fold with the incubation medium was added thereto in an amount of 20 μL/well, and incubated in the 5% carbon dioxide incubator at 37° C. for 2 hours. Using a microplate spectrophotometer (Biorad's Model 550), the absorbance at 450 nm and 655 nm of each well was measured. The cell growth inhibition activity of the test compound was indicated by the 50% growth inhibition concentration (GI50) thereof, like in Test Example 2.
(Tetrazolium assays rely on reduction of a dye to a coloured formazan, in cell work by metabolically active cells.)

As for `CCOC(=O)Oc1cc(OC(=O)OCC)c(-c2ccccc2)c(CCOCCOC)c1CC` [Compound 325, 1,5-Bis(ethoxycarbonyloxy)-4-ethyl-3-[2-(2-methoxyethoxy)ethyl]-2-phenylbenzene], the GI50 was no more than 50 µM.
As for `CCc1c(O)cc(O)c(-c2cccc(F)c2)c1CC1O[C@H](CO)[C@@H](CO)O1` [Compound 296, 5-{[(4R,5R)-4,5-bis(hydroxymethyl)-1,3-dioxolan-2-yl]methyl}-6-ethyl-4-(3-fluorophenyl)benzene-1,3-diol], the GI50 is no more than 50 µM.
The figure for `CCc1c(O)cc(O)c(-c2ccccc2)c1CCN1CCCC1CO` (centres unmarked) [Compound 316, 6-Ethyl-5-{2-[2-(hydroxymethyl)pyrrolidin-1-yl]ethyl}-4-phenylbenzene-1,3-diol] is no more than 50 µM; for `OC[C@@H]1OC(Cc2c(Cl)c(O)cc(O)c2-c2ccccc2)O[C@H]1CO` [Compound 285, 5-{[(4S,5S)-4,5-bis(hydroxymethyl)-1,3-dioxolan-2-yl]methyl}-6-chloro-4-phenylbenzene-1,3-diol] it is no more than 50 µM; for `CCc1c(O)cc(O)c(-c2ccc(F)c(C)c2)c1CC1O[C@H](CO)[C@@H](CO)O1` [Compound 291, 5-{[(4R,5R)-4,5-bis(hydroxymethyl)-1,3-dioxolan-2-yl]methyl}-6-ethyl-4-(4-fluoro-3-methylphenyl)benzene-1,3-diol] it is no more than 50 µM.
The figure for `CCc1c(O)cc(O)c(-c2cccc(O)c2)c1CCOCC1CO1` (centres unmarked) [Compound 219, 6-Ethyl-4-(3-hydroxyphenyl)-5-[2-(oxiran-2-ylmethoxy)ethyl]benzene-1,3-diol] is no more than 50 µM; for `CCc1c(O)cc(O)c(-c2cccc(OCCN3CCCC3=O)c2)c1CCOCC(O)CO` (centres unmarked) [Compound 196, 5-[2-(2,3-Dihydroxypropoxy)ethyl]-6-ethyl-4-{3-[2-(2-oxopyrrolidin-1-yl)ethoxy]phenyl}benzene-1,3-diol] it is no more than 50 µM.
On to `CCc1c(O)cc(O)c(-c2cccc(N)c2)c1CCOCC(O)CO` (centres unmarked) [Compound 197, 4-(3-Aminophenyl)-5-[2-(2,3-dihydroxypropoxy)ethyl]-6-ethylbenzene-1,3-diol], for which the GI50 was no more than 50 µM.
For the compound `CCc1c(O)cc(O)c(-c2cccc(O)c2)c1CC1O[C@H](CO)[C@@H](CO)O1` [Compound 298, 5-{[(4R,5R)-4,5-Bis(hydroxymethyl)-1,3-dioxolan-2-yl]methyl}-6-ethyl-4-(3-hydroxyphenyl)benzene-1,3-diol], the GI50 was no more than 50 µM.
For `CCc1c(O)cc(O)c(-c2ccccc2)c1Cc1ocnc1C(=O)OC` [Compound 200, Methyl 5-[(2-ethyl-3,5-dihydroxy-6-phenylphenyl)methyl]-1,3-oxazole-4-carboxylate] the value was no more than 50 µM; for `CC(=O)c1c(O)cc(O)c(-c2ccccc2)c1CC1O[C@H](CO)[C@@H](CO)O1` [Compound 234, 1-(6-{[(4R,5R)-4,5-bis(hydroxymethyl)-1,3-dioxolan-2-yl]methyl}-2,4-dihydroxy-5-phenylphenyl)ethanone], no more than 50 µM; for `CCc1c(O)cc(O)c(-c2cccc(OCCN3CCOCC3)c2)c1CCOCC(O)CO` (centres unmarked) [Compound 195, 5-[2-(2,3-Dihydroxypropoxy)ethyl]-6-ethyl-4-[3-(2-morpholinoethoxy)phenyl]benzene-1,3-diol], no more than 50 µM.
As to `CCc1c(O)cc(O)c(-c2cccc(OC)c2)c1CC1O[C@H](CO)[C@@H](CO)O1` [Compound 286, 5-{[(4R,5R)-4,5-bis(hydroxymethyl)-1,3-dioxolan-2-yl]methyl}-6-ethyl-4-(3-methoxyphenyl)benzene-1,3-diol], the GI50 is no more than 50 µM.
For `CCc1c(O)cc(O)c(-c2ccccc2)c1CCc1ocnc1C(=O)NCCO` [Compound 223, 5-[2-(2-Ethyl-3,5-dihydroxy-6-phenylphenyl)ethyl]-N-(2-hydroxyethyl)-1,3-oxazole-4-carboxamide] the value was no more than 50 µM.
